The values below come from patent publication US20230241064A1, “METHODS OF TREATMENT AND/OR PREVENTION OF MAJOR ADVERSE CARDIOVASCULAR EVENTS (MACE) WITH A COMBINATION OF A BET BROMODOMAIN INHIBITOR AND A DIPEPTIDYL PEPTIDASE 4 INHIBITOR” (Resverlogix Corp., priority 2020, published 2023).

For series [1] the following is noted: EXAMINE; cited from earlier work.
In series [2] the test system is type 2 diabetes patients with low HDL cholesterol and a recent acute coronary syndrome (ACS). Description: BETonMACE Phase 3 trial post-hoc analysis: cumulative incidence of narrowly defined MACE. The class given is in vivo, human.
Description: Patients (n=2425) with ACS in the preceding 7 to 90 days, with type 2 diabetes and low HDL cholesterol (≤40 mg/dl for men, ≤45 mg/dl for women), receiving intensive or maximum-tolerated therapy with atorvastatin or rosuvastatin, were assigned in double-blind fashion to receive apabetalone 100 mg orally twice daily or matching placebo. Baseline characteristics include female sex (25%), myocardial infarction as index ACS event (74%), coronary revascularization for index ACS (76%), treatment with dual anti-platelet therapy (87%) and renin-angiotensin system inhibitors (91%), median LDL cholesterol 65 mg per deciliter, and median HbA1c 7.3%. The primary efficacy measure is time to first occurrence of cardiovascular death, non-fatal myocardial infarction, or stroke. Assumptions include a primary event rate of 7% per annum in the placebo group and median follow-up of 1.5 years. Patients were followed until at least 250 primary endpoint events had occurred, providing 80% power to detect a 30% reduction in the primary endpoint with apabetalone.
Those patients who received at least one dose of DPP-4 inhibitor treatment after the date of the first incidence of event were censored as non-MACE events and the date of last contact was used as the censoring date.
The distributions of the endpoints within the apabetalone and placebo groups were compared using a two-sided log-rank test (LRT) with an alpha=0.05 level of significance. The cumulative incidence is shown as 1-KM (Kaplan-Meier) estimate for event rate.
The test system is the same in series [3]. As to the kind of experiment: BETonMACE post-hoc analysis: cumulative incidence of cardiovascular death. It counts as in vivo, human. The settings on record: patients without DPP-4 inhibitor; vs placebo (non-treatment); FIG. 11. As for the experimental part:
(§1) Apabetalone (RVX-208) was evaluated in a recently completed clinical Phase 3 trial (BETonMACE; NCT02586155) for the effect on MACE in type 2 diabetes patients with low HDL cholesterol (below 40 mg/dL for males and below 45 mg/dL for females) and a recent acute coronary syndrome (ACS). All patients received high intensity statin treatment, which was 20-40 mg daily or a maximum daily dose of 40 mg for rosuvastatin or 40-80 mg daily or a maximum daily dose of 80 mg for atorvastatin.
(§2) Patients (n=2425) with ACS in the preceding 7 to 90 days, with type 2 diabetes and low HDL cholesterol (≤40 mg/dl for men, ≤45 mg/dl for women), receiving intensive or maximum-tolerated therapy with atorvastatin or rosuvastatin, were assigned in double-blind fashion to receive apabetalone 100 mg orally twice daily or matching placebo. Baseline characteristics include female sex (25%), myocardial infarction as index ACS event (74%), coronary revascularization for index ACS (76%), treatment with dual anti-platelet therapy (87%) and renin-angiotensin system inhibitors (91%), median LDL cholesterol 65 mg per deciliter, and median HbA1c 7.3%. The primary efficacy measure is time to first occurrence of cardiovascular death, non-fatal myocardial infarction, or stroke. Assumptions include a primary event rate of 7% per annum in the placebo group and median follow-up of 1.5 years. […]

Series [4] shares this test system. As to the kind of experiment: BETonMACE post-hoc analysis: cumulative incidence of non-fatal myocardial infarction. The note with it: patients without DPP-4 inhibitor; vs placebo (non-treatment); FIG. 8. It counts as in vivo, human. The method, then: as §1, §2
For series [5] the test system is unchanged. Description: BETonMACE post-hoc analysis: cumulative incidence of hospitalization for congestive heart failure. It counts as in vivo, human. The note with it: patients without DPP-4 inhibitor, vs placebo (non-treatment).
Series [6] shares this test system. As to the kind of experiment: BETonMACE post-hoc analysis: cumulative incidence of broadly defined MACE. It counts as in vivo, human. The settings on record: patients without DPP-4 inhibitor; vs placebo (non-treatment); FIG. 5.
The conditions of series [7]: vs placebo; TECOS trial; cited from earlier work.

For `Cn1c(=O)cc(N2CCC[C@@H](N)C2)n(Cc2ccccc2C#N)c1=O` [alogliptin], the “effect on the 3-point MACE composite outcome of cardiovascular death, myocardial infarction, or ischemic stroke” value in series [1] is given as “neutral effect”.

As to `COc1cc(OC)c2c(=O)[nH]c(-c3cc(C)c(OCCO)c(C)c3)nc2c1` [apabetalone, 2-(4-(2-hydroxyethoxy)-3,5-dimethylphenyl)-5,7-dimethoxyquinazolin-4(3H)-one], the “number of primary end points (narrowly defined MACE: cardiovascular death, non-fatal myocardial infarction, or stroke)” value in series [2] (apabetalone 100 mg orally twice daily, on statin, per treatment group) came out at 114. The “Kaplan-Meier estimated event rate, narrowly defined MACE” value in series [2] (at 18 months) was 8.0%. The “Hazard Ratio, narrowly defined MACE” value in series [2] (patients without DPP-4 inhibitor, vs placebo (non-treatment), FIG. 2) stood at 0.99. Besides, in series [2] (per treatment group), the “primary end points (narrowly defined MACE) as percent of group” value came to 10.9%. The “Hazard Ratio, cardiovascular death” value in series [3] came to 0.97. Also, the “Hazard Ratio, non-fatal myocardial infarction” value in series [4] is recorded as 0.99. Moreover, the “reduction of number of patients having a hospitalization for congestive heart failure event at any given time” value in series [5] is listed as 27%. The “Hazard Ratio, hospitalization for congestive heart failure” value in series [5] (FIG. 14) is listed as 0.73. Besides, the “Hazard Ratio, broadly defined MACE” value in series [6] amounted to 1.00.

`N[C@@H](CC(=O)N1CCn2c(nnc2C(F)(F)F)C1)Cc1cc(F)c(F)cc1F` [sitagliptin]: in series [7], the “hazard ratio (HR), 3-point MACE composite outcome” value is 0.99 and the “hazard ratio (HR), 4-point MACE composite outcome” value is 0.98.
